Values quoted from earlier work as cited in patent publication US12642772B2, “Triptolide formulations” (MINNEAMRITA THERAPEUTICS LLC, priority 2024, dated 2026).

CC(C)[C@]12O[C@H]1[C@@H]1O[C@]13[C@]1(O[C@H]1C[C@H]1C4=C(CC[C@@]13C)C(=O)OC4)[C@@H]2O [triptolide, Triptolide]
solubility in water: approximately 0.017 mg/mL
